We go through two substances from patent publication US20040038861A1, “Methods and compositions for normalizing lipid levels in mammalian tissues” (priority 2001, published 2004).

For one assay, the target named is T1, ramp 1/C1ins− receptor (Mus musculus, UniProt Q60755+Q9WTJ5).
T1 construct: expressed in transfected cells; host or cells: L6 myoblasts (ATCC), transient co-transfection of pcDNA3.1 plasmids
T1 sequence (Q60755 42-496 isoform Q60755-2 limits assumed): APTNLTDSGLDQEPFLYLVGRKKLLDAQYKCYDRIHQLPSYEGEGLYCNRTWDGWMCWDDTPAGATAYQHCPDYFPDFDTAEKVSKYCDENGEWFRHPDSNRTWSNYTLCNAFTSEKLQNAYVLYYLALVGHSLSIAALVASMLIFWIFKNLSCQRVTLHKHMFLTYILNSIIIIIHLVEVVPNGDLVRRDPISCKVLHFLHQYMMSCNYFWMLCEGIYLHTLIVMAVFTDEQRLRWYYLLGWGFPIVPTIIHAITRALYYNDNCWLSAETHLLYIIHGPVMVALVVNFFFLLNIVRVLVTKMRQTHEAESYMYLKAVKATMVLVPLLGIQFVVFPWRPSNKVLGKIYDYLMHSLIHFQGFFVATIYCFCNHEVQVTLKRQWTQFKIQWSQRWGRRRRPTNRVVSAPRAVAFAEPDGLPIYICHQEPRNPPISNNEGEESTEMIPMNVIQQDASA
T1 sequence (Q9WTJ5 27-148 partner): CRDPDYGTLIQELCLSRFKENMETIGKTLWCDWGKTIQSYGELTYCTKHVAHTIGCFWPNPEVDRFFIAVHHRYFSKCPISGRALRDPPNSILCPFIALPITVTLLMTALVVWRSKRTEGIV
Nature of the assay: cAMP production in L6 myoblasts co-transfected with ramp 1 and C1ins−. The format is cell-based, murine. The note with it: 15 min, FIG. 10. As for the experimental part:
Transfection of L6 myoblasts and cos-7 cells, and analysis of radioligand binding. L6 myoblasts and cos-7 cells were obtained from ATCC. Both cell lines were cultered in Dulbecco's modified Eagle's medium (DMEM; Gibco/BRL, high glucose) supplemented with 10% fetal calf serum (Gibco/BRL, Gaithersburg, Md.), L-glutamine (2 mM), penicillin (100 U/ml; Sigma), streptomycin ([…]; Sigma), saline (0.85%), under 5% CO2/95% air at 37° C. The day before transfection, cells were trypsinised and seeded into six-well plates at a density of 2.9×10^5 cells/well in the same medium. For transfection, cells were incubated with a mixture comprising 1 μg each of Qiagen-purified (Qiagen, Valencia, Calif.) plasmids containing C1ins− with either ramp 1 or ramp 3, and Fugene reagent (6 μl; Boehringer Mannheim) in Opti-Mem I medium (Gibco/BRL). The complex was added with serum to cells, which were incubated for a further 48 h.
Determination of cAMP in cultured cells and soleus muscle strips. cAMP concentration was measured in cells seeded in six-well plates and transfected as described. Following aspiration, cells were incubated for 15 min at room temperature in the presence of stated concentrations of ligands in binding buffer. Isobutylmethylxanthine (Sigma) was added to a final concentration of 0.5 mM together with stated concentrations of peptides, and the reaction terminated by aspiration. Cells were washed with 0.5 ml ice-cold TE buffer (10 mM Tris/HCl, 1 mM EDTA, pH 7.6) and rapidly transferred to eppendorf tubes in 1 ml of the same buffer, then boiled for 5 min. Following centrifugation at 12,000 g for 5 min at 4° C., then cooling on ice, duplicate 50 μl aliquots were analyzed for cAMP using an assay system based on competitive binding (Arnersham Pharmacia) according to the manufacturer's instructions.

The subject of assay [1] is soleus muscle. Nature of the assay: cAMP content of isolated soleus muscle from normal fed rats. The format is cell-based, rat. How it is done:
(§1) Soleus muscle preparation. All experiments were performed according to protocols approved by the Institutional Animal Ethics Committee. 5-6 week-old male Wistar rats (160 g) were kept on a 12:12-h light/dark cycle, and fed and watered ad libitum. Animals were anaesthetised with 50 mg/kg Nembutal (pentobarbitone sodium), then sacrificed by cervical dislocation. Soleus muscles were dissected under oxygenated KHB (118 mM NaCl, 4.75 mM KCl, 1.2 mM MgSO4, 24.8 mM NaHCO3, 1.2 mM KH2PO4, 2.54 mM CaCl2, 10 mM glucose, pH 7.4) and teased into halves, then incubated as described below.
For the measurement of cAMP in muscle, isolated soleus strips were incubated with stated concentrations of peptides, then lyophilized and deproteinized. Each strip was placed in 400 μl of 0.5 M HClO4 with 5 mM EDTA (phosphodiesterase inhibitor) and sonicated three times in 20 s bursts. Tubes were heated for 3-5 min in boiling water to coagulate protein, then centrifuged (12,000 g, 4° C., 2 min). Supernatant (300 μl) was taken and the pH adjusted to 7.0 with 75 μl of 2 M NH4OH. The samples were refrigerated (4° C., 2 h) to precipitate proteins, then centrifuged under the same conditions as above and 50 μl taken for cAMP measurement.

Assay [2] has as its system soleus muscle. Nature of the assay: Total glycogen content in isolated incubated soleus muscle. In kind it is cell-based, rat. The note with it: for total glycogen content: 10 nM peptide, 2 h; for EC50: isolated rat soleus muscle. How it is done: as §1
Total glycogen content was measured in muscle strips by lyophilization followed by hydrolysis of glycogen to D-glucose with amyloglucosidase (Sigma) 20 U/100 ml in 0.2 M sodium acetate/acetic acid buffer, pH 4.8, and expressed as μmol ‘glucosyl’ units/g dry muscle weight. Free glucose in supernatant solutions was measured with a glucose/lactate analyzer (YSI 2300STAT, Yellow Springs Corporation) using D-glucose oxidase immobilized enzyme chemistry.
(§2) Data analysis. One way ANOVA, Dunnett's Multiple Comparisons Test, and unpaired Student's t-tests were used to calculate the statistical significance of differences, as appropriate. Dose-response curves were fitted to a sigmoidal dose-response algorithm, as follows: Y=minimum+(maximum−minimum)/([…] log ^(EC50^−X), for 2-DOG-uptake; and by a four parameter logistic model, Y=minimum+(maximum−minimum)/(1+10 log ^(EC50^−X)Hill-Coefficient) for total glycogen and [^14C]glucose incorporation. Calculations were performed using Prism v2.0 (GraphPad Software, San Diego, Calif.) to derive values for half-maximal effective concentration (EC50). Displacement curves derived for competition of bound radioligand with cold ligand in transfected cells were calculated according to a one site competition fit using Prism v2.0.

In assay [3] the test system is soleus muscle. Nature of the assay: Incorporation of D[14C(U)]glucose into glycogen in isolated incubated soleus muscle. In kind it is cell-based, rat. The note with it: for rate of D[14C(U)]glucose incorporation into glycogen: 10 nM peptide, 2 h; for EC50: isolated rat soleus muscle. As for the experimental part:
as §1
Measurement of glycogen metabolism in isolated, incubated soleus muscle. […]. Glycogen was precipitated overnight at −20° C. with 96% ethanol (1.2 ml), followed by centrifugation at 8,000 g (15 min, 4° C.). Pellets were washed twice with the same amount of ethanol then dissolved in water (0.6 ml). Aliquots (0.3 ml) were analyzed for D[^14C(U)] glucose content by liquid scintillation spectrometry.
as §2

Where [4] appears, read: absence of insulin, basal 90.8±3.7.
The mark [5] stands for this setting: insulin 23.7 nM, insulin alone 138±4.8.
The mark [6] stands for this setting: absence of insulin, control 4.8±0.3.
The mark [7] stands for this setting: maximal insulin, control 27.6±1.4.

In the case of Rat amylin, the “cAMP production in co-transfected myoblasts” value on ramp 1/C1ins− receptor is listed as “dose-dependent increases of cAMP production”. In addition, in the assay on soleus muscle [1] (10 nM or 100 nM amylin, absence or presence of insulin), the “maximal increase in cAMP content” value is on record as “about 2 fold”. The “effect of picomolar concentrations on muscle cAMP levels” value in the assay with soleus muscle [1] (FIG. 13C) is given as “no effect”. Moreover, the results for the total glycogen content in the assay on soleus muscle [2] (setting [4]) and in the assay on soleus muscle [2] (setting [5]) were 65.6±9.1 μmol/g dry-wt muscle/h and 86.7 μmol/g dry-wt muscle/h, respectively. The EC50 (as a rule, the concentration that produces a half-maximal response) with soleus muscle [2] (absence of insulin) turned out to be 8 nM; in the assay with soleus muscle [2] (human insulin 23.7 nM), 8.1 nM; in the assay on soleus muscle [3] (absence of insulin) it was 9.4 nM; in the assay on soleus muscle [3] (human insulin 23.7 nM) it was 9.2 nM. In addition, the “rate of D[14C(U)]glucose incorporation into glycogen” value in the assay on soleus muscle [3] (setting [6]) came to 2.7±0.8 μmol/g dry-wt muscle/h; with soleus muscle [3] (setting [7]), 16.0±2.5 μmol/g dry-wt muscle/h.

As to rat CGRP-1, the “cAMP production in co-transfected myoblasts” value on ramp 1/C1ins− receptor is “dose-dependent increases of cAMP production”. For the same substance, the “muscle cAMP content” value in the assay on soleus muscle [1] (CGRP at both 5 nM and 100 nM, absence or presence of insulin (23.7 nM)) was “significant increases in muscle cAMP content”. In the assay with soleus muscle [1] (normal fed, 100 nM CGRP or adrenaline, control 3.9±0.2), the “cAMP content, agonist alone” value was determined as 6.9 ± 0.8 pmol/mg. Besides, the “cAMP increase with 1 pM CGRP” value in the assay with soleus muscle [1] (normal fed, 1 hr incubation) was “No significant cAMP increase”. Further, the total glycogen content was 71.4±7.7 μmol/g dry-wt muscle/h in the assay with soleus muscle [2] (setting [4]) and 113±6.9 μmol/g dry-wt muscle/h with soleus muscle [2] (setting [5]). In addition, the EC50 with soleus muscle [2] (absence of insulin) turned out to be 3.2 nM; in the assay with soleus muscle [2] (human insulin 23.7 nM) it was 4.3 nM; in the assay with soleus muscle [3] (absence of insulin) it was 3.1 nM; in the assay with soleus muscle [3] (human insulin 23.7 nM) it was 0.7 nM. The “rate of D[14C(U)]glucose incorporation into glycogen” value was found to be 2.8±0.3 μmol/g dry-wt muscle/h in the assay with soleus muscle [3] (setting [6]) and 13.7±0.7 μmol/g dry-wt muscle/h with soleus muscle [3] (setting [7]).
